The text below walks through data of patent US20210283211A1, “COMPOSITIONS AND METHODS OF ALLEVIATING RESISTANCE TO CHEMOTHERAPY” (CITY OF HOPE, priority 2019, published 2021).

The term IC50 denotes the concentration needed to halve the response being measured. Low readings indicate higher potency, high ones lower potency.

Entries after “also recorded” stand apart in the source; their conditions may differ.

In experiment [1] the test system is H2009 cells. Briefly: cells. The settings on record: Homo sapiens. It is filed as cell-based. Here is the method:
(§1) Cell viability assay: Cell Counting Kit-8 (CCK-8) was purchased from Dojindo Molecular Technologies (Rockville, Md., USA). Cells were seeded on a 96-well plate and allowed to adhere in complete medium for 24 hours. Test compounds were added to 100 μl of medium at the indicated concentrations for 72 hours. Ten μl of the CCK-8 reagent were added to each well and absorbance at 450 nm was measured using a Tecan Spark 10M multimode microplate reader.
(§2) Then a sublethal dose was used to determine the effect of these compounds on ITGB4 and PXN expression and caspase activity (FIG. 9I). […] These eleven compounds were further screened in the cisplatin-resistant cell line H2009. […] Further, carfilzomib was tested in another cisplatin-resistant cell line H1993.

For experiment [2], the system named is H2009 cells. Briefly: IncuCyte cell proliferation and caspase-3/7 apoptosis assay. It is filed as cell-based, human. Particulars: 80 nM, 72 hours, among eleven compounds. As to the method: (§3) Cell proliferation and apoptosis assay. Cell proliferation assays were performed using cell lines stably transfected with NucLight Red Lentivirus (Essen Bioscience) to accurately visualize and count the nucleus of a single cell. Cells were seeded on a 96-well plate and allowed to adhere for 24 hours. Test compounds were added at indicated concentrations. Caspase-3/7 Green Apoptosis Reagent (Essen Bioscience) was also added as a green fluorescent indicator of caspase-3/7-mediated apoptotic activity. To monitor cell proliferation and apoptosis over time, the plate was placed in the IncuCyte S3 Live-Cell Analysis System (Essen BioScience) and images were acquired every 2 hours. Data analysis was generated by the IncuCyte software using a red fluorescence mask to accurately count each cell nucleus and a green fluorescence mask to measure apoptosis over time.
To determine whether the inhibition in cell proliferation associated with ITGB4 knockdown was due to enhanced apoptosis or reduced cell division (cytostatic), the Essen Bioscience Caspase-3/7 Green apoptosis assay in live cells was conducted. The NucView™[…], a DNA intercalating dye was used to enable quantification of apoptosis over time. The dye is impermeable and non-toxic to cells but once the cell membrane is permeabilized by caspase-3/7, the dye enters the cell and gets activated due to change in pH leading to the generation of green fluorescence that is then detected in real time and quantified using the IncuCyte System (FIG. 4B).
To address this, H1993 and H2009 cells were treated with cisplatin for 3 days and the changes were analyzed by immunoblotting. […] Next, H1993 and H2009 cells were transiently transfected with ITGB4 siRNA and 24 hours post-transfection they were treated with 10 μM cisplatin and cell proliferation and caspase activity were determined. […] However, in response to cisplatin in ITGB4 knockdown cells, the fold change dipped to <1, alluding to a cytotoxic effect (FIG. 4C). […] However, cell death was not due to caspase activation but appeared to be due to cell bursting which is seen in anoikis (FIGS. 3K and 3L).

The test system of a further experiment is H1993 cells. Briefly: Carfilzomib dose response on cell proliferation, IC50 determination. Particulars: increasing dose. It is filed as cell-based, human. Here is the method: as §3, §2
Experiment [3] deals with H2009 cells. Briefly: Scratch wound healing assay. It is filed as cell-based, human. Here is the method: Scratch wound healing assay. Cells were seeded on a 96-well Image Lock (Essen BioScience, Ann Arbor, Mich., USA) plate to reach 90% confluence by the next day. After cell adherence, 96 uniform wounds were created simultaneously using the WoundMaker (Essen BioScience) tool. Cells were washed once with serum-free medium and replenished with complete medium. To monitor wound healing, the plate was placed in the IncuCyte S3 Live-Cell Analysis System (Essen BioScience) and images were acquired every hour. Data analysis was generated by the IncuCyte software using a set confluence mask to measure relative wound density over time.
To discern the effect of knocking down ITGB4 on cell migration, H1993 and H2009 cells were transfected with the control or ITGB4-specific siRNA in 6-well plates and 12 hours post transfection, the cells were trypsinized and reseeded at high density in a 96-well plate. […] While both cell lines transfected with the control siRNA achieved 100% confluency of the wound within 48 hours, H1993 and 2009 cells in which ITGB4 was knocked down reached ˜60% and ˜80% confluency, respectively; neither cell line reached 100% confluency even after 96 h (FIG. 3F). Next the rate of wound closure was estimated. The rate was determined by dividing initial wound width by the time taken to close the wound. […] Similarly, in the case of the H2009 cells, the wound width closure rate dropped from 22 μm/h to about 18 μm/h (FIG. 3G). […] Additionally, up regulation of expression of other integrin β forms in response to ITGB4 knockdown was checked and an increase in the expression of ITGB1, ITGB2, and ITGB3 at mRNA level was found (FIG. 3I). The effect of ITGB3 silencing in the ITGB4 knocked down cells was further tested but no significant difference in their proliferation was found (FIG. 3J).

Experiment [4] has as its system ITGB4, PXN, USP1, VDAC1, CD133 in patient-derived organoids. Briefly: Immunoblot of treated patient-derived organoids. It is filed as cell-based, human. The settings on record: 48 hours, printed 2.5 mM and 5 mM.
Protocol: West blotting: Cell lysates were prepared with 1×RIPA buffer (MilliporeSigma) and denatured in 1× reducing sample buffer at 95° C. for 5 minutes. Protein samples (15 μg) were run on 4-15% TGX gels (Bio-Rad, Hercules, Calif., USA) and transferred onto nitrocellulose membranes (Bio-Rad). Blots were blocked with 5% non-fat milk in TBS-T for 1 hour at room temperature and probed with primary antibody diluted in 2.5% BSA in TBS-T overnight at 4° C. After three washes with TBS-T, blots were incubated with HRP-conjugated secondary antibodies for 2 hours at room temperature. After three more washes, bands of interest were visualized via chemiluminescence using Western Bright ECL HRP substrate (Advansta, Menlo Park, Calif., USA) and imaged with the ChemiDoc MP imager (Bio-Rad).
In a further experiment the test system is H358 cells. In words: Cell-based rescreen of top virtual-screen hits, IC50 determination. Particulars: Homo sapiens, NCI-H358, 0.1 μM to 10 μM, 72 hours. As to the method: as §1
A virtual screen of a library of 1440 FDA-approved drugs using binding pockets in the N-terminal domain of PXN (FIG. 9H) identified several putative hits. The top 40 hits were then rescreened employing a cell-based assay to determine their efficacy using H358 cells.

`CC(C)C[C@H](NC(=O)[C@H](CCc1ccccc1)NC(=O)CN1CCOCC1)C(=O)N[C@@H](Cc1ccccc1)C(=O)N[C@@H](CC(C)C)C(=O)[C@@]1(C)CO1` [Carfilzomib]: in the experiment on H2009 cells [1] (NCI-H2009, 72 h, read-out: reduction in the cell viability), the cytotoxicity at 0.08 µM was 80%. In addition, the IC50 in the experiment on H2009 cells [1] (NCI-H2009, H2009 cells, increasing dose, 72 hours) is 418 nM; with H1993 cells (H1993 cells), 1770 nM; in the experiment on H1993 cells (Homo sapiens, NCI-H1993, H1993 cells) it was 1700 nM; with H358 cells, 0.8 nM. In addition, in the experiment on H2009 cells [2], the “inhibitory effect in cell proliferation” value was “greatest inhibitory effect in cell proliferation”. The same compound gave a wound confluency in the experiment with H2009 cells [3] (200 nM, untreated >90%) of 79%. The “cell migration / wound healing” value in the experiment on H2009 cells [3] (sublethal dose (carfilzomib 50-200 nM)) is “significant inhibition of wound healing and reduction in wound closure rate; also recorded: dose-dependent inhibition of cell migration”. The “protein expression by immunoblot” value in experiment [4] was “decrease in the expression of ITGB4, USP1, PXN and VDAC1; also recorded: decreased expression of ITGB4, PXN, USP1, VDAC1 and CD133”.
